A short description of series [1]: Local (cellular) toxicity in vitro, fluorescein assay. The conditions noted are these: FS-TET disks at solubility limit (TET-HCl 20 mg/mL, TET free base 1 mg/mL).
The test system of series [2] is MDR isotype of S. aureus (ATCC 27659). In words: Agar diffusion zone of growth inhibition, antibiotics delivered from fibrin sealant. Type of series: cell-based, Staphylococcus aureus. The conditions noted are these: in vitro, 6 mm wells filled with fibrin sealant with antibiotic, 18 h at 37° C., FIG. 2. The protocol: The method used was that of Barry,Am. Journal of Clinical Pathology, 53:149 (1970), incorporated herein by reference, with modifications. Briefly, antibiotic bioactivity was assessed by agar diffusion where the agar hydrogel was seeded with bacteria prior to solidification. Several 6 mm wells were cut into the agar, the plugs were removed by aspiration and the wells were filled with the fibrin sealant hydrogel containing various concentrations of low-solubility antibiotics. Cultures were incubated for 18 h at 37° C. Zones of growth inhibition—the area about the well where diffused antibiotic prevents growth of seeded bacteria—were recorded to the nearest mm and graphed in FIG. 2. The zone of inhibition required to document bacterial susceptibility to a particular concentration of antibiotic is indicated by a black horizontal bar. […] Moreover, increasing the local concentration of low solubility antibiotics released from fibrin sealant effectively overcomes S. aureus resistance in vitro.
Background: Agar diffusion results depend on both activity and mobility in agar.

Series [3] relates to non-multi-drug resistant (NMDR) peritonitis. The series can be described thus: Prophylactic protection against lethal NMDR peritonitis in mice. Type of series: in vivo. The settings on record: prophylactic treatment, 500 mg/kg.

As to `CN(C)[C@@H]1C(=O)C(C(N)=O)=C(O)[C@@]2(O)C(=O)C3=C(O)c4c(O)cccc4[C@@](C)(O)[C@H]3C[C@@H]12.Cl` [TET-HCl], the “local (cellular) toxicity, fluorescein assay” value in series [1] is “acutely toxic”. In the case of `[H]/N=C(/N)N[C@H]1[C@H](O)[C@@H](O)[C@H](O[C@@H]2O[C@@H](C)[C@](O)(C=O)[C@H]2O[C@@H]2O[C@@H](CO)[C@H](O)[C@@H](O)[C@@H]2NC)[C@@H](N/C(N)=N\[H])[C@@H]1O` [streptomycin], the “growth inhibition (zone of growth inhibition)” value in series [2] was “appeared effective in vitro”. Turning to `CN(C)[C@@H]1C(O)=C(C(N)=O)C(=O)[C@@]2(O)C(O)=C3C(=O)c4c(O)cccc4[C@@](C)(O)[C@H]3C[C@@H]12` [tetracycline], the “protection against a lethal dose of NMDR peritonitis” value in series [3] is given as 100%.
